Measured values taken from publication PMC12587786, “In vitro α-glucosidase inhibition, molecular dynamics and docking study of phenyl carbamoyl methoxy thiosemicarbazone derivatives as potential anti-diabetic agents” (Journal of Enzyme Inhibition and Medicinal Chemistry, 2025).
“Also recorded” adds a separate entry of the source. Read-outs that look alike come from different tables or passages of the source. Each block holds one molecule with its values, some of them ahead of it.

Columns and labels:
[1] = target: T1, α-glucosidase (from Saccharomyces cerevisiae EC 3.2.1.20) (Saccharomyces cerevisiae, UniProt P53341); assay: biochemical
T1 construct: purchased Sigma
Procedure: The method described by Azizian et al. with some modifications was used to assess αglucosidase inhibitory activity of novel derivatives of phenyl carbamoyl methoxy thiosemicarbazone. The enzyme solution was prepared of αglucosidase (1 U/mL) in a […] phosphate buffer (pH: 6.8). The final volume of assay solution in the 96-well plate was 200 µl, which was prepared in the following order: 20 µl of the enzyme solution was used to obtain a final enzyme activity of […] per well. 20 µl of various concentrations of novel inhibitors (1000, 500, 250, 125, 62.5, 31.25, and 15.62 µM) and potassium phosphate buffer (135 µl, pH = 6.8). The 96-well plate was incubated for 10 min at 37 °C and pNPG as substrate (25 µl, 4 mM) was added to each well of the plate and was incubated again for 30 min at 37 °C. Finally, absorbance was measured at 405 nm using a spectrophotometer (BioTek ELx808, USA). […] The IC50 values for the tested inhibitors were calculated using Microsoft Excel 2016 software and non-linear regression analysis.

[2] = MTT cytotoxicity assay on A549 cells; assay type: cell-based; conditions: human, A549 cells (non-small cell lung carcinoma cell line), 24 h, MTT, read-out: cell viability rate; for viability at 24 h, 12.5 µM: A549, 12.5 µM; for viability at 24 h, 25 µM: A549, 25 µM; for viability at 24 h, 50 µM: A549, 50 µM; for viability at 24 h, 100 µM: A549, 100 µM
Procedure: (§1) To evaluate the cytotoxic effects of novel derivatives of phenyl carbamoyl methoxy thiosemicarbazone, an MTT assay was conducted using the non-small cell lung carcinoma cell line A549 and the MDA-MB-453 human breast cancer cell line. Both cell lines were obtained from the Pasteur Institute in Iran, and the assay was performed following the method of Jelena et al.[15], with some minor modifications.
(§2) In short, 100 µl of A549 cells (1 × 10^5) cultured in DMEM (Dulbecco’s modified Eagle’s medium) enriched with 10% foetal bovine serum (FBS) and 100 U/mL penicillin. […] streptomycin were added to each well in a 96-well plate, and they were incubated at 37 °C and 5% CO2 for 24 h. Also, 100 µl of MDA-MB-453 cells (1 × 10^5) cultured in RPMI enriched with 10% FBS and 100 U/mL penicillin and […] streptomycin were added to each well in a 96-well plate and were incubated at 37 °C and 5% CO2 for 24 h. Subsequently, the medium in both cell lines was replaced with different concentrations (12.5, 25, 50, and 100 µM) of two derivatives of 7e and 7 g, and plates were incubated at 37 °C and 5% CO2 for 24 h. After that, 10 µl of MTT (3–4, 5 dimethyl thiazol- 2 yl)-2, 5- diphenyl tetrazolium bromide) (Sigma USA) dye ([…] in PBS) was added to each well and incubated for 4 h at 37 °C. After 4 h, the solution was removed from the cells, and 100 µl of DMSO (dimethyl sulfoxide) was added to the wells. The optical density of each well was measured at 570 nm using an ELISA reader (BioTek ELx808, USA). The wells containing more cells have a higher optical density (OD) than those with fewer cells. Therefore, the wells with more cells can be identified using the following equation and compared with the control sample. Toxicity%=1−mean OD of sample/mean OD of control∗100 viability%=100−Toxicity %
(§3) PBS buffer and 1% Triton X-100 were negative and positive controls, respectively. All tests were conducted in triplicate.

[3] = MTT cytotoxicity assay on MDA-MB-453 cells; assay type: cell-based, human; conditions: human, MDA-MB-453 cells (breast cancer cell line), 24 h, MTT, read-out: cell survival rate / cell viability; for viability at 24 h, 12.5 µM: MDA-MB-453, 12.5 µM; for viability at 24 h, 25 µM: MDA-MB-453, 25 µM; for viability at 24 h, 50 µM: MDA-MB-453, 50 µM; for viability at 24 h, 100 µM: MDA-MB-453, 100 µM
Procedure: as §1, §2, §3

[4] = system: non-small cell lung carcinoma cell line A549; assay: MTT cytotoxicity assay on A549 cells; assay type: cell-based; conditions: A549
Procedure: as §1, §2, §3

[5] = system: MDA-MB-453 human breast cancer cell line; assay: MTT cytotoxicity assay on MDA-MB-453 cells; assay type: cell-based; conditions: MDA-MB-453
Procedure: as §1, §2, §3

[6] = target: T2, α-glucosidase (Saccharomyces cerevisiae, UniProt P53341); assay: Kinetic study of α-glucosidase inhibition (Lineweaver-Burk and secondary plots); assay type: biochemical
T2 construct: purchased Sigma
Procedure: Kinetic studies were conducted to determine the inhibition mechanism of the strongest novel inhibitor with the lowest IC50. […] The experimental inhibitor constant[42] was made using secondary plots.
This was achieved using Lineweaver–Burk plots to determine the type of inhibition mechanism and the Km value. […] This mode of inhibition is particularly advantageous for antidiabetic therapy, as it facilitates glucose-dependent modulation of enzyme activity. […] These attributes highlight the promise of 7e as a therapeutic agent for managing postprandial glucose levels in individuals with type 2 DM.

[7] = pNPG substrate, pH 6.8, 37 °C, mean ± SD, n = 3, read-out: IC50 (µM) ± SD, α-glucosidase inhibitory activity

T1 sequence (P53341 whole entry): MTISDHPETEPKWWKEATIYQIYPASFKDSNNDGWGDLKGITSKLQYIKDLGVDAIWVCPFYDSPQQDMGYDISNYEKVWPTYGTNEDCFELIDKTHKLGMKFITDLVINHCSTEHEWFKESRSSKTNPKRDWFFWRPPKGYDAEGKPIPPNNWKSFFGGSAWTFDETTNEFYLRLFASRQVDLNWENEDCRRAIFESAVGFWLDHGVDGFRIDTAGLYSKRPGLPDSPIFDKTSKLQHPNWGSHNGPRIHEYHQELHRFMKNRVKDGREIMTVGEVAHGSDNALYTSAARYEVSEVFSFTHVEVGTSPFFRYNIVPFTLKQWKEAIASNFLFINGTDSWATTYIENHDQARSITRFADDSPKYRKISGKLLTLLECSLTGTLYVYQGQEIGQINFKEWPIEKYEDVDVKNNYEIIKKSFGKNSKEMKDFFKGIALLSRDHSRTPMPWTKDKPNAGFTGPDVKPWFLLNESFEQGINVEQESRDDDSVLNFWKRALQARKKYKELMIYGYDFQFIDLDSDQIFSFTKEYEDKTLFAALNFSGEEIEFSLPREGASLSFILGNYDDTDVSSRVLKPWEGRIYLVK
T2 sequence (P53341 whole entry): as above

Molecule: 2-{4-[(Z)-[(carbamothioylamino)imino]methyl]-2-methoxyphenoxy}-N-(4-methylphenyl) acetamide [Compound 7i]
IC50 [1, 7]: 125.9 ± 0.016 µM

Molecule: COc1cc(/C=N\NC(N)=S)ccc1OCC(=O)Nc1ccccc1Cl [7 g, 2-{4-[(Z)-[(carbamothioylamino)imino]methyl]-2-methoxyphenoxy}-N-(2-chlorophenyl) acetamid]
IC50 [1]: 62.2 ± 0.411 µM
viability at 24 h, 12.5 µM [2]: 96.2%
viability at 24 h, 25 µM [2]: 72.4%
viability at 24 h, 50 µM [2]: 57.3%
viability at 24 h, 100 µM [2]: 27.7%
viability at 24 h, 12.5 µM [3]: 89.6%
viability at 24 h, 25 µM [3]: 66.7%
viability at 24 h, 50 µM [3]: 50.6%
viability at 24 h, 100 µM [3]: 41%

Molecule: COc1cc(/C=N\NC(N)=S)ccc1OCC(=O)Nc1ccccc1 [Compound 7a, 2-{4-[(Z)-[(carbamothioylamino)imino]methyl]-2-methoxyphenoxy}-N-phenylacetamide]
IC50 [1]: 257 ± 0.491 µM

IC50 [1, 7]: 151.18 ± 0.02 µM
Molecule: COc1cc(/C=N\NC(N)=S)ccc1OCC(=O)Nc1ccc(C)cc1 [Compound 7b, 2-{4-[(Z)-[(carbamothioylamino)imino]methyl]-2-methoxyphenoxy}-N-(4-methylphenyl) acetamide]

IC50 [1, 7]: 95.99 ± 0.273 µM
Molecule: CCc1ccc(NC(=O)COc2ccc(/C=N\NC(N)=S)cc2OC)cc1 [Compound 7c, 2-{4-[(Z)-[(carbamothioylamino)imino]methyl]-2-methoxyphenoxy}-N-(4-ethylphenyl) acetamide]

Molecule: COc1cc(C=NNC(N)=S)ccc1OCC(=O)NCc1ccccc1 [Compound 7d]
IC50 [1]: 216.42 ± 0.025 µM

Molecule: COc1cc(/C=N\NC(N)=S)ccc1OCC(=O)Nc1cccc(C)c1 [Compound 7e, 2-{4-[(Z)-[(carbamothioylamino)imino]methyl]-2-methoxyphenoxy}-N-(3-methylphenyl) acetamide]
IC50 [1]: 23.95 ± 0.038 µM
viability at 24 h, 12.5 µM [2]: 95.5%
viability at 24 h, 25 µM [2]: 84.3%
viability at 24 h, 50 µM [2]: 75.2%
viability at 24 h, 100 µM [2]: 63.7%
cytotoxic activity (in words) [4]: did not possess important cytotoxic activity; also recorded: low cytotoxicity
viability at 24 h, 12.5 µM [3]: 97.4%
viability at 24 h, 25 µM [3]: 74.7%
viability at 24 h, 50 µM [3]: 66.3%
viability at 24 h, 100 µM [3]: 57.2%
cytotoxic activity (in words) [5]: did not possess important cytotoxic activity; also recorded: low cytotoxicity
Ki [6]: 34.8 µM
Type of inhibition mechanism ([6]; Lineweaver–Burk plots): competitive inhibitor
Vmax with increasing inhibitor concentration ([6]; inhibitor 0-250 µM): remained unchanged

Molecule: COc1cc(/C=N\NC(N)=S)ccc1OCC(=O)Nc1cccc([N+](=O)[O-])c1 [Compound 7f, 2-{4-[(Z)-[(carbamothioylamino)imino]methyl]-2-methoxyphenoxy}-N-(3-nitrophenyl) acetamide]
IC50 [1]: 328.17 ± 0.083 µM

IC50 [1, 7]: 573.67 ± 0.043 µM
Molecule: COc1cc(/C=N\NC(N)=S)ccc1OCC(=O)Nc1ccc(Br)cc1 [Compound 7h, N-(4-bromophenyl)-2-{4-[(Z)-[(carbamothioylamino)imino]methyl]-2-methoxyphenoxy} acetamide]

Molecule: COc1cc(/C=N\NC(N)=S)ccc1OCC(=O)Nc1cccc(C)c1C [Compound 7j, 2-{4-[(Z)-[(carbamothioylamino)imino]methyl]-2-methoxyphenoxy}-N-(2,3-dimethylphenyl) acetamide]
IC50 [1]: 103.91 ± 0.028 µM

Molecule: COc1cc(/C=N\NC(N)=S)ccc1OCC(=O)Nc1ccc(Cl)cc1 [Compound 7k, 2-{4-[(Z)-[(carbamothioylamino)imino]methyl]-2-methoxyphenoxy}-N-(4-chlorophenyl) acetamide]
IC50 [1]: 442.41 ± 0.009 µM

Molecule: COc1cc(/C=N\NC(N)=S)ccc1OCC(=O)Nc1ccc(C)cc1C [Compound 7l, 2-{4-[(Z)-[(carbamothioylamino)imino]methyl]-2-methoxyphenoxy}-N-(2,4-dimethylphenyl) acetamide]
IC50 [1]: 122.72 ± 0.098 µM

IC50 [1, 7]: 436.5 ± 0.062 µM
Molecule: COc1ccc(NC(=O)COc2ccc(/C=N\NC(N)=S)cc2OC)cc1 [Compound 7m, 2-{4-[(Z)-[(carbamothioylamino)imino]methyl]-2-methoxyphenoxy}-N-(4-methoxyphenyl) acetamide]

Molecule: COc1cc(/C=N\NC(N)=S)ccc1OCC(=O)Nc1ccccc1F [Compound 7n, 2-{4-[(Z)-[(carbamothioylamino)imino]methyl]-2-methoxyphenoxy}-N-(2-fluorophenyl) acetamide]
IC50 [1]: 95.65 ± 0.056 µM
